Results published in patent US20120101169A1, “METHODS OF PROVIDING ANTICOAGULATION EFFECTS IN SUBJECTS” (Penwest Pharmaceuticals Co., priority 2010, published 2012).
Where “and” joins values, the source holds several entries; their conditions need not be identical. Equal values may be shown once. Read-outs that look alike come from different tables or passages of the source.

Experiments:
antithrombin (AT) = test: Extended coagulation biomarker panel: antithrombin; design: species or system human; conditions: in vivo
Excerpt: (§1) In Part 1 the extended panel was collected at screening and at check-in (Day −1) and Day 2 of each period unless the study results warranted a different sampling schedule. In Part 2, the same of the exploratory coagulation biomarkers were collected at screening, check-in, Day 4, and Day 8 in Cohorts 1 and 2, or at check-in, Day 7, and Day 14 in Cohorts 3 and 4 with the following exception: in Cohorts 3 and 4, platelet function was collected at check-in only or when medically indicated.

[1] = system: coagulation tests (PT, INR, PTT); test: Coagulation tests (PT, INR, PTT) after single ATQ dose (Example 4); conditions: for Highest postdose PT value above ULN: one subject
Excerpt: (§2) The INR is the ratio of a subject's prothombin time (PTtest) to the prothombin time of a normal (control) sample (PTnormal), raised to the power of the International Sensitivity Index (ISI) value for the analytical system:
“Prothrombin time” or “PT” refers to the time it takes the blood plasma of a subject to clot after the addition of a thromboplastin reagent. “Thromboplastin reagent” refers to a standardized commercial product which is used in blood coagulation assays to measure blood clotting time. Non-limiting examples of thromboplastin reagents include RecombiPlasTin (Beckman Coulter, Brea, Calif.), INNOVN® and THROMBOREL® (Dade Behring, Liederbach, Germany).
(§3) As used herein, the terms “activated partial thromboplastin time” or “aPTT” or “partial thromboplastin time” or “PTT,” refer to the time it takes the blood plasma of a subject to clot after the addition of a phospholipid (i.e., partial thromboplastin) and calcium chloride. Non-limiting examples of phospholipids for use in determining aPTT include silica and kaolin.

[2] = system: coagulation (PT, INR, aPTT); test: Basic coagulation panel (PT, INR, aPTT) and coagulation safety (Example 5)
Excerpt: as §2
“Prothrombin time” or “PT” refers to the time it takes the blood plasma of a subject to clot after the addition of a thromboplastin reagent. “Thromboplastin reagent” refers to a standardized commercial product which is used in blood coagulation assays to measure blood clotting time.
as §3
INR grades are used to rank the severity thresholds for the coagulation factors relative to the upper normal of limit values (ULN). The higher the INR grade the higher the severity. […] As used herein, “Grade 1” refers to an INR value of 1.1 to 1.65 in a subject. As used herein, “Grade 2” refers to an INR value of 1.65 to 2.2 in a subject. As used herein, “Grade 3” refers to an INR value greater than 2.2 in a subject.
Thus both the basic coagulation panel assessments including PT, INR, aPTT, and platelet counts were performed at screening, on Day −1, and extensively throughout the treatment period to assess the potential effect of ATQ on coagulation.
This section covers the PD effect of ATQ on the coagulation parameters PT, INR, and aPPT and the relative time course of drug induced changes in these parameters.

[3] = Safety and tolerability of (R,R,R) α-tocopherol quinone in healthy male and female subjects (Example 1); conditions: high and moderate fat meal
Experimental: The safety and tolerability of (R,R,R) α-tocopherol quinone was tested in healthy male and female subjects. Twelve subjects were divided into two groups of six subjects each (Groups A and B). Group A was administered 1.5 g of a (R,R,R) α-tocopherol quinone twice a day for one day. Group B was administered 1.0 g of (R,R,R) α-tocopherol quinone three times a day for 1 day. Both groups of subjects were fed under high and moderate fat meal content.

[4] = Food-effect and regimen pharmacokinetics, single 3-g daily ATQ dose (Example 5 Part 1); assay type: in vivo, human; conditions: for Cmax / AUC(0-inf) / Vd/F / half-life / Tmax: male, human, plasma, oral, 3 g; for Vd/F: read-out: Vz/F
Experimental: The study was conducted in 2 parts. Part 1 was conducted in healthy male subjects only while Part 2 was conducted in healthy male and female subjects. The intent of this study part was to optimize the dosage regimen and diet for the multiple-dose safety and tolerance Part 2 of the study. All plasma ATQ concentrations were determined using a GLP validated bioanalytical method. ATQ was administered as an oral solution in oil (0.49 g/mL). The placebo solution consisted of olive oil alone.
The dose of 3-g ATQ was selected for Part 1 as it most likely represented the high end of the exposure spectrum selected for the subsequent tolerance trial. For Part 1, serial blood samples for the measurement of the plasma levels of ATQ were collected prior to and following each oral dose administered on Day 1 through 36 hours following the morning dose on Day 1 (or 24 hours post-evening dose).

protein C = test: Extended coagulation biomarker panel: protein C; assay type: in vivo, human; conditions: Part 2, 0.67 g TID, Day 4
Excerpt: as §1

factor X = test: Extended coagulation biomarker panel: factor X; assay type: in vivo, human
Excerpt: as §1

protein S = test: Extended coagulation biomarker panel: protein S; assay type: in vivo, human; conditions: Part 2, 0.67 g TID, Day 4
Excerpt: as §1

factor V = test: Extended coagulation biomarker panel: factor V; design: species or system human; conditions: in vivo
Excerpt: as §1

factor II (prothrombin) = test: Extended coagulation biomarker panel: factor II; assay type: in vivo, human; conditions: Part 2, 0.67 g TID, Day 4
Excerpt: as §1

[5] = Cohort 5 (6-g ATQ), subject with highest PT
[6] = Cohort 6 (2.2-g as 0.735-g TID)
[7] = of the 48 subjects who received ATQ
[8] = 3-g BID, high-fat meal, mean, N = 6
[9] = 3-g BID, standard meal, mean, N = 6
[10] = 3-g TID, high-fat meal, mean, N = 5
[11] = 3-g TID, standard meal, mean, N = 6

Structure (SMILES): CC1=C(C)C(=O)C(CC[C@](C)(O)CCC[C@H](C)CCC[C@H](C)CCCC(C)C)=C(C)C1=O [ATQ, alpha-tocopherolquinone]
- Effect on the activity of AT (antithrombin (AT)): did not appear to affect
- INR change ([1]; 2 g administered as a single entity (2 g QD)): NO INR change
- Subjects with 24-hour postdose PT value above ULN ([1]; Cohort 3 (1-g ATQ)): 2 of 8
- 24-hour postdose PT value above ULN ([1]; Cohort 3 (1-g ATQ), 2 of 8 subjects): 5.2%
- Subjects with postdose PT values above ULN ([1]; Cohort 5 (6-g ATQ)): 5 of 8
- Highest postdose PT value above ULN ([1]; Cohort 5 (6-g ATQ)): 39.1%
- Increase in INR above ULN [1, 5]: 23.1%
- Increase in PTT above ULN [1, 5]: 5.6%
- Subjects with postdose PT values above ULN [1, 6]: 4 of 8
- Highest postdose PT value above ULN [1, 6]: 20.9%
- Increase in INR above ULN ([1]; Cohort 6 (2.2-g as 0.735-g TID), subject with highest PT): 7.7%
- Subjects with a 24-hour postdose INR value above ULN [1, 7]: 2 subjects
- Subjects with a 24-hour postdose PTT value above ULN [1, 7]: 1 subject
- Subjects with postdose PT values above the upper limit of normal (ULN) [1, 7]: 11 subjects
- Time for INR and PTT values to return to normal range ([1]; postdose, all subjects): ≤ 48 h
- Effect on the coagulation tests, especially PT and INR ([1]; single doses, 48 subjects who received ATQ): slight but not clinically significant effect
- Reversibility of changes in hemostasis ([1]; upon cessation of the treatment): fully reversible
- INR values reached by individual subjects ([2]; 0.67 g TID group, 3 of 8 subjects): 2.3 and 3.0 (2×)
- Subjects with that grade of INR increase ([2]; 0.75 g BID, Grade 2): 2 of 6
- Subjects with that grade of INR increase ([2]; 2-g/day (0.67 g TID), Grade 3, active-treated): 3 of 8
- Effect on coagulation (INR, PT, aPTT) ([2]; 3-g over 1 day, 0.33 g TID and 0.67 g TID or 0.75 g BID): clear effect on coagulation
- Effect on coagulation during prolonged dosing ([2]; 14 days at 0.5 g and 0.75 g BID): appeared to slowly abate while still on drug beyond 8 days
- Subjects with clinical coagulation laboratory values greater than 1.5 times the upper limit of normal (value greater than 1.65) ([2]; Part 1): 5 subjects
- Subjects with clinically relevant changes in clinical laboratory values related to treatment-emergent adverse events ([2]; Part 1): Twelve
- Active-treated subjects with clinically relevant changes in clinical laboratory values related to treatment-emergent adverse events ([2]; b179, part not stated): Twenty-five
- Subjects with study-drug related clinical coagulation laboratory values greater than 1.5 times the upper limit of normal (value greater than 1.65) ([2]; b179, part not stated): 11 subjects
- Onset of the effect on coagulation ([2]; following the first (high dose) of ATQ, Part 1): 18 h
- Time course of the effect on coagulation ([2]; initial increase through Day 4, second peak by Day 7 to 8): biphasic
- Onset of the effect on coagulation ([2]; multiple dose administration): ≤ 48 h
- Time at which most subjects approach baseline coagulation values ([2]; post last dose): 48 h
- Subjects with that grade of INR increase ([2]; single daily doses of 3-g ATQ, Grade 2): 4 of 12
- Safety and tolerability (side effects) ([3]; Group A: 1.5 g twice a day for one day): no side effects were observed
- Safety and tolerability (side effects) ([3]; Group B: 1.0 g three times a day for 1 day): no side effects were observed
- CLpo [4, 8]: 21.4 L/h
- CLpo [4, 9]: 22.0 L/h
- CLpo [4, 10]: 18.2 L/h
- CLpo [4, 11]: 18.1 L/h
- Overall exposure (AUC) BID versus TID ([4]; 3-g dose as 2×1.5-g every 12 hours or 3×1.0-g every 6 hours): similar
- Cmax ([4]; 3-g BID (2×1.5 g 12 h apart), high-fat meal, baseline-adjusted, mean, N = 6, read-out: Cmax): 13400 ng/mL
- Cmax ([4]; 3-g BID (2×1.5 g 12 h apart), standard meal, baseline-adjusted, mean, N = 6, read-out: Cmax): 15300 ng/mL
- AUC(0-inf) ([4]; 3-g BID, high-fat meal, baseline-adjusted, mean, N = 6): 152 µg·h/mL
- Vd/F [4, 8]: 132 L
- half-life ([4]; 3-g BID, high-fat meal, mean, N = 6, read-out: t1/2 (converted)): 4.2 h
- Tmax ([4]; 3-g BID, high-fat meal, median, N = 6, read-out: Tmax): 10.5 h
- AUC(0-inf) ([4]; 3-g BID, standard meal, baseline-adjusted, mean, N = 6): 157 µg·h/mL
- Vd/F [4, 9]: 143 L
- half-life ([4]; 3-g BID, standard meal, mean, N = 6, read-out: t1/2 (converted)): 4.34 h
- Tmax ([4]; 3-g BID, standard meal, median, N = 6, read-out: Tmax): 6 h
- Cmax ([4]; 3-g TID (3×1.0 g 6 h apart), high-fat meal, baseline-adjusted, mean, N = 5, read-out: Cmax): 14200 ng/mL
- Cmax ([4]; 3-g TID (3×1.0 g 6 h apart), standard meal, baseline-adjusted, mean, N = 6, read-out: Cmax): 15000 ng/mL
- AUC(0-inf) ([4]; 3-g TID, high-fat meal, baseline-adjusted, mean, N = 5): 178 µg·h/mL
- Vd/F [4, 10]: 122 L
- half-life ([4]; 3-g TID, high-fat meal, mean, N = 5, read-out: t1/2 (converted)): 4.88 h
- Tmax ([4]; 3-g TID, high-fat meal, median, N = 5, read-out: Tmax): 17.5 h
- AUC(0-inf) ([4]; 3-g TID, standard meal, baseline-adjusted, mean, N = 6): 169 µg·h/mL
- Vd/F [4, 11]: 139 L
- half-life ([4]; 3-g TID, standard meal, mean, N = 6, read-out: t1/2 (converted)): 5.37 h
- Tmax ([4]; 3-g TID, standard meal, median, N = 6, read-out: Tmax): 12.7 h
- Cmax ([4]; single 3-g daily dose, across treatments, read-out: mean Cmax range): 13400 to 15300 ng/mL
- half-life ([4]; single 3-g daily dose, across treatments, read-out: mean t1/2 values (range across treatments)): 4.2 to 5.37 h
- Tmax ([4]; single 3-g daily dose, across treatments, read-out: median Tmax (range across treatments)): 6 to 17.5 h
- ATQ exposure (Cmax and AUC) high-fat versus standard meal ([4]; single 3-g daily dose): no difference
- Protein C activity (protein C): 109%
- Decrease from baseline activity of factor X (factor X; Part 2, 0.67 g TID, Day 4): 62%
- Decrease from baseline activity of factor X (factor X; Part 2, Day 14): 68%
- Decrease from baseline activity of protein S (protein S): 56%
- Effect on the activity of factor V (factor V): did not appear to affect
- Decrease from baseline activity of factor II (factor II (prothrombin)): 51%
